Active and inactive are the calls of the source. No rule for the calls is given here.
Target: Chaperone protein DnaK (Escherichia coli (strain K12)) (UniProt P0A6Y8)
Test: E. coli DnaK SBD ligand binding – biophysical, NMR, chaperone (AID 1033)
Conditions: Purified DnaK SBD

Chaperone protein DnaK (Escherichia coli (strain K12)), sequence (P0A6Y8 whole entry, looked up): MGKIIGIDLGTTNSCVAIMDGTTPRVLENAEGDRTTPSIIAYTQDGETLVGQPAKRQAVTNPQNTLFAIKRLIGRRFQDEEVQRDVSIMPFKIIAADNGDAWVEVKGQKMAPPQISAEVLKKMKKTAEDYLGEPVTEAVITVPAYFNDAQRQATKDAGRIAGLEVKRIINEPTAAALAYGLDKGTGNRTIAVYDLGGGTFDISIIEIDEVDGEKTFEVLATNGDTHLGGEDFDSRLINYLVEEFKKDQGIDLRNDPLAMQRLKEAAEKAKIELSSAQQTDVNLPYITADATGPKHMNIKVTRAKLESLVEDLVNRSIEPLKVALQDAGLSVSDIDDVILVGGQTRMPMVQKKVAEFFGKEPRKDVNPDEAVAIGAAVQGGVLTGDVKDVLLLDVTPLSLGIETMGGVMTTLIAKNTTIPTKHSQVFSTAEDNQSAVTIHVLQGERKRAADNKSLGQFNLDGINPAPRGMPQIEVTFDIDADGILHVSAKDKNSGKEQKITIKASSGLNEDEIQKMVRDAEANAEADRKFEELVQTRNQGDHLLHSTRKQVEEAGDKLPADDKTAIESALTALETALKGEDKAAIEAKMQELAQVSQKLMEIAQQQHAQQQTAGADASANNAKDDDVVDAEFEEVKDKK

SMILES | Kd
COc1cc2c(cc1OC)Cc1cc(OC)c(OC)cc1Cc1cc(OC)c(OC)cc1C2 | > 4 mM (inactive)
Cc1cc(=O)cc(C)n1-c1ccccc1N1CCOCC1 | > 4 mM (inactive)
O=C(O)C1CCN(S(=O)(=O)c2cccs2)CC1 | > 4 mM (inactive)
Nc1nc(-c2ccc(Cl)cc2)nn1C(=O)c1cccnc1 | > 4 mM (inactive)
Cc1ccc(C(=O)N2CCOCC2)cc1Cl | > 4 mM (inactive)
Cc1nc(-c2ccc(C(=O)O)s2)cs1 | > 4 mM (inactive)
CC1SC(=NC(=O)c2ccncc2)NC1=O (configuration not stated) | > 4 mM (inactive)
Cc1nnc2ccc(N3CCCC3)nn12 | > 4 mM (inactive)
O=C(O)c1cccc2c1OCCO2 | > 4 mM (inactive)
NC1=NC(=O)/C(=C/c2cccc([N+](=O)[O-])c2)S1 | > 4 mM (inactive)
CC(=O)O[C@H]1CCC2(C)C3=C(CCC2C1(C)C)[C@]1(C)CCC(C(C)CCC=C(C)C)[C@@]1(C)CC3 (some centres not stated) | > 4 mM (inactive)
Cc1cc(C(=O)Nc2ccccn2)no1 | > 4 mM (inactive)
Cc1nc(-c2ccccc2)sc1CO | > 4 mM (inactive)
O=c1nc(NCc2ccco2)sc2ncccc12 | > 4 mM (inactive)
NC(=O)CSc1ccccn1 | > 4 mM (inactive)
COc1cccc(NC(=O)c2nc3ncccn3n2)c1 | > 4 mM (inactive)
Cc1cn(C(=O)CN2C(=O)c3ccccc3C2=O)c(C)n1 | > 4 mM (inactive)
O=C(NC1CCS(=O)(=O)C1)c1ccccc1 (configuration not stated) | > 4 mM (inactive)
O=c1cc(O)nc(SCc2ccccc2)[nH]1 | > 4 mM (inactive)
O=C(O)c1ccnc2ccccc12 | > 4 mM (inactive)
Cc1nc2ccccc2c(=O)n1CCCn1ccnc1 | > 4 mM (inactive)
Oc1ccc(C2SCCS2)cc1 | > 4 mM (inactive)
Cc1oc(-c2ccccc2)cc1C(=O)O | > 4 mM (inactive)
O=C(c1ccccc1)N1CCNCC1 | > 4 mM (inactive)
CCN1C[C@@]2(COC)C3[C@@H](OC)[C@H]4[C@@H]1[C@]3(C(OC)C[C@H]2O)C1C[C@@]2(O)[C@H](OC(=O)c3ccccc3)C1[C@]4(OC(C)=O)[C@@H](O)[C@@H]2OC (some centres not stated) | > 4 mM (inactive)

SMILES | Kd
O=C1C2C3C=CC(C3)C2C(=O)N1CCO (configuration not stated) | > 4 mM (inactive)
O=C(O)c1ccc(Nc2nncc(=O)[nH]2)cc1 | > 4 mM (inactive)
COc1ncccc1N | > 4 mM (inactive)
COc1ccc2[nH]cc(CN(C)C)c2c1 | > 4 mM (inactive)
N#Cc1cnc(N2CCCCC2)nc1N | > 4 mM (inactive)
CC(=O)Nc1nnc(-c2ccccc2S(C)(=O)=O)o1 | > 4 mM (inactive)
COc1ccc(-c2nnc(-c3ccc(N)cc3)o2)cc1 | > 4 mM (inactive)
CCNS(=O)(=O)c1ccc(OC)c(C)c1 | > 4 mM (inactive)
C=CCn1c(=S)[nH]c2ccc(Br)cc2c1=O | > 4 mM (inactive)
CN(C)Cc1c(N)cccc1O | > 4 mM (inactive)
CC(C)=CCC/C(C)=C/CC/C(C)=C/CC/C(C)=C/CC/C(C)=C/CC/C(C)=C/CC/C(C)=C/CC/C(C)=C/CC/C(C)=C/CO | > 4 mM (inactive)
CN1CC(=O)Nc2ccc([N+](=O)[O-])cc2C1=O | > 4 mM (inactive)
COc1ccc(-c2cc(=O)c3c(O)cc(O[C@@H]4O[C@H](CO[C@H]5O[C@H](C)[C@@H](O)[C@H](O)[C@@H]5O)[C@@H](O)[C@H](O)[C@H]4O)cc3o2)cc1O | > 4 mM (inactive)
NC(=O)CSc1nnc2ccc(-c3ccco3)nn12 | > 4 mM (inactive)
Cc1cc(=O)n2ncn(Cc3ccccc3)c2n1 | > 4 mM (inactive)
O=C(O)c1ccccc1C(=O)NCC1CCCO1 (configuration not stated) | > 4 mM (inactive)
NC(=O)c1ccsc1N | > 4 mM (inactive)
O=C(O)c1cncc(-c2ccccc2)c1 | > 4 mM (inactive)
O=C(O)c1ccc(-n2ccnc2)cc1 | > 4 mM (inactive)
CN(C)c1ccc(N2C(=O)CCC2=O)cc1 | > 4 mM (inactive)
CCn1c(C)c(C(C)=O)c(N2CCOCC2)nc1=S | > 4 mM (inactive)
CC1=C(C(N)=O)C(c2ccccc2)NC(=O)N1 (configuration not stated) | > 4 mM (inactive)
CCNS(=O)(=O)c1cc(Br)ccc1OC | > 4 mM (inactive)
CC(C)c1ccc2c(c1)CCC1C(C)(C(N)=O)CCCC21C (configuration not stated) | > 4 mM (inactive)
COc1ccc2c3c([nH]c2c1)C(C)=NCC3 | > 4 mM (inactive)

SMILES | Kd
O=C(NCc1ccccc1)c1cnsn1 | > 4 mM (inactive)
Cc1cccc(C)c1NC(=O)/C=C/C(=O)O | > 4 mM (inactive)
O=C(CC1Nc2ccccc2NC1=O)Nc1ccc(O)cc1 (configuration not stated) | > 4 mM (inactive)
O=C(O)CCC(=O)Nc1ccccc1F | > 4 mM (inactive)
O=C(Nc1nnc(-c2ccco2)o1)C1=COCCO1 | > 4 mM (inactive)
OCc1snnc1-c1ccccc1 | > 4 mM (inactive)
CC(=O)NCCc1cc2ccc(C)c(C)c2[nH]c1=O | > 4 mM (inactive)
CC1(C)NC(=O)N(CN2CCOCC2)C1=O | > 4 mM (inactive)
NN1C(=O)/C(=C/c2ccc(O)c(O)c2)SC1=S | > 4 mM (inactive)
CNC(=S)Nc1ccc(OC)cc1C | > 4 mM (inactive)
NC(=S)CN1CCCC1=O | > 4 mM (inactive)
Cc1nc2ccccc2c(=O)n1/N=C/c1ccco1 | > 4 mM (inactive)
O=C(CC1NCCNC1=O)Nc1ccccc1 (configuration not stated) | > 4 mM (inactive)
Cc1[nH]ccc2c1[nH]c1cc(=O)ccc12 | > 4 mM (inactive)
CC(=O)Nc1ccc(S(=O)(=O)N(C)C)cc1 | > 4 mM (inactive)
COc1ccccc1N1C(=N)SCC1=O | > 4 mM (inactive)
COc1ccccc1-c1cn[nH]c(=S)n1 | > 4 mM (inactive)
CC(C)(C)NC(=O)N1CCC(C(=O)O)CC1 | > 4 mM (inactive)
COc1ccc2[nH]cc(CCN(C)C)c2c1 | > 4 mM (inactive)
O=C1C2CC=CCC2C(=O)N1c1cccc(O)c1 (configuration not stated) | > 4 mM (inactive)
NC(=O)c1sc2ccccc2c1Cl | > 4 mM (inactive)
OCc1ccc(Oc2ccccc2)nc1 | > 4 mM (inactive)
CC1(C)NC(=O)N(CCOc2ccc3c(c2)CCC3)C1=O | > 4 mM (inactive)
Cc1cc(C)n2nc(N)nc2n1 | > 4 mM (inactive)
S=C(c1ccc(N2CCOCC2)cc1)N1CCOCC1 | > 4 mM (inactive)

SMILES | Kd
Cc1c(N=Cc2ccc[nH]2)c(=O)n(-c2ccccc2)n1C | > 4 mM (inactive)
CC(=O)c1ccc(NS(=O)(=O)c2cccc(C)c2)cc1 | > 4 mM (inactive)
O=c1c(-c2ccc(O)cc2)coc2cc(O)ccc12 | > 4 mM (inactive)
CC(NC(=O)c1ccco1)c1ccc2c(c1)OCCO2 (configuration not stated) | > 4 mM (inactive)
COC(=O)C1CSCC1=O (configuration not stated) | > 4 mM (inactive)
O=C(NCc1cccc(Cl)c1)c1ccco1 | > 4 mM (inactive)
C=C1C2CC[C@@]3(C)[C@H](c4ccoc4)OC(=O)C[C@]13O[C@H]1CC(=O)C(C)(C)[C@H](C(OC(C)=O)C(=O)OC)[C@@]21C (some centres not stated) | > 4 mM (inactive)
CC1=NN(C(N)=S)C(C)(C)C1 | > 4 mM (inactive)
COCCn1cnc2cc(C)c(C)cc21 | > 4 mM (inactive)
Cc1cc(C)c(-c2cc(C(F)(F)F)no2)c(=O)[nH]1 | > 4 mM (inactive)
CC(=O)Nc1nc2c(s1)C(=O)NCCC2 | > 4 mM (inactive)
NC1CN2CCC1CC2 (configuration not stated) | > 4 mM (inactive)
Nc1ccc2c(c1)S(=O)(=O)C=C2 | > 4 mM (inactive)
O=CN1CCN(C(=O)c2ccco2)CC1 | > 4 mM (inactive)
N#Cc1c[nH]n2c(=O)cc(Cc3ccccc3)nc12 | > 4 mM (inactive)
OC1CSc2ncnn2C1 (configuration not stated) | > 4 mM (inactive)
Cc1ccc(-c2c(C)n([O-])c3c([n+]2=O)CCCC3)o1 | > 4 mM (inactive)
NC(=O)c1c[nH]c2ccccc12 | > 4 mM (inactive)
Cc1nc(N)sc1C(=O)N/N=C/c1ccncc1 | > 4 mM (inactive)
O=C(NCc1ccco1)c1ccc(Br)s1 | > 4 mM (inactive)
CC(=O)c1cccc(NC(=O)C=C(C)C)c1 | > 4 mM (inactive)
O=C(NCO)c1ccc([N+](=O)[O-])cc1 | > 4 mM (inactive)
O=C(CSc1ncn[nH]1)c1ccc2c(c1)OCO2 | > 4 mM (inactive)
CSc1nc(C)cc(-n2ccc(=O)[nH]c2=O)n1 | > 4 mM (inactive)
O=C(O)CC(O)c1nc2ccccc2[nH]1 (configuration not stated) | > 4 mM (inactive)

SMILES | Kd
Cc1nccc(-c2cccc(N)c2)n1 | > 4 mM (inactive)
Cc1nc(-c2ccc(CO)s2)cs1 | > 4 mM (inactive)
N/C(=N/S(=O)(=O)c1cccs1)c1ccccc1 | > 4 mM (inactive)
C=CCc1ccc(OC(=O)c2ccccc2)c(OC)c1 | > 4 mM (inactive)
Cc1nnc2sc(-c3csc4c3CCCC4)nn12 | > 4 mM (inactive)
CN1CCC(NC(=O)c2ccccc2[N+](=O)[O-])CC1 | > 4 mM (inactive)
O=C(O)c1ccc(CN2CCOCC2)cc1 | > 4 mM (inactive)
Cc1nc(-c2cccc(-c3noc(C)n3)c2)no1 | > 4 mM (inactive)
CC1(C)CCC(C)(C)c2cc(C(=O)O)ccc21 | > 4 mM (inactive)
Cc1ccccc1-n1c(N)cc(=O)[nH]c1=S | > 4 mM (inactive)
CN1CCN(S(=O)(=O)c2ccc(=O)[nH]c2)CC1 | > 4 mM (inactive)
Cn1nnc2cc(C(=O)Nc3cccnc3)ccc21 | > 4 mM (inactive)
COC(=O)c1cccc(Cn2nnc3ccccc3c2=O)c1 | > 4 mM (inactive)
CNC(C)[C@H](O)c1ccccc1 (some centres not stated) | > 4 mM (inactive)
Cc1nnc(NCc2ccc3c(c2)OCO3)[nH]c1=O | > 4 mM (inactive)
O=S(=O)(N1CCCCC1)n1nnc2ccccc21 | inactive
Nc1ccc2sccc2c1 | > 4 mM (inactive)
O=C(Cc1c(F)cccc1Cl)Nc1ccncc1 | > 4 mM (inactive)
COCc1nc(-c2cc(Br)ccc2OC)no1 | > 4 mM (inactive)
Cc1ccc2cccc(OC(=O)N3CCCC3)c2n1 | > 4 mM (inactive)
CCc1ccc(C(=O)N2CCCC2)s1 | > 4 mM (inactive)
CCN1CCN(CCCNc2ncnc3nc[nH]c23)CC1 | > 4 mM (inactive)

Reference: PubChem BioAssay AID1033 (Sanford-Burnham Center for Chemical Genomics, 2008)
